Experiments:
[1] = test system: T. gondii RH strain (RH-Tub-eYFP) tachyzoites; assay: microbe, parasite or virus in culture; type: cell-based, Toxoplasma gondii; conditions: 72 h; for Tg_72h_%Growth_Rep1: replicate 1; for Tg_72h_%Growth_Rep2: replicate 2
[2] = test system: P. falciparum 3D7 parasites; assay: P. falciparum growth inhibition assay, 2-cycle (120 h treatment), delayed-death screen and dose-response; type: cell-based, Plasmodium falciparum; conditions: for Pf_120h_%Growth_Rep1: replicate 1; for Pf_120h_%Growth_Rep2: replicate 2
[3] = test system: P. falciparum 3D7 parasites; assay: P. falciparum growth inhibition assay, 1-cycle (72 h treatment), SYBR DNA staining (library screen at 2 μg/mL and dose-response); type: cell-based, Plasmodium falciparum; conditions: for Pf_72h_%Growth_Rep1: replicate 1; for Pf_72h_%Growth_Rep2: replicate 2
[4] = T. gondii, parasite screen 2 μg/mL, % growth
[5] = P. falciparum, 120 h, parasite screen 2 μg/mL, % growth
[6] = P. falciparum, 72 h, parasite screen 2 μg/mL, % growth
[7] = P. falciparum, 120 h, screen at 2 μg/mL
[8] = P. falciparum, 72 h, screen at 2 μg/mL
[9] = T. gondii RH, library screen at 2 μg/mL, % growth
[10] = P. falciparum 3D7, 120 h, library screen at 2 μg/mL, % growth
[11] = P. falciparum 3D7, 72 h, library screen at 2 μg/mL, % growth

Compound | Tg_72h_%Growth_Rep1 ([1]; T. gondii, screen at 2 μg/mL) | Tg_72h_%Growth_Rep2 ([1]; T. gondii, screen at 2 μg/mL) | Pf_120h_%Growth_Rep1 [2, 7] | Pf_120h_%Growth_Rep2 [2, 7] | Pf_72h_%Growth_Rep1 [3, 8] | Pf_72h_%Growth_Rep2 [3, 8] | other results
C=C(NC(=O)C(=C)NC(=O)c1csc(C2=N[C@@H]3c4csc(n4)[C@H]4NC(=O)c5csc(n5)[C@H]([C@](C)(O)[C@@H](C)O)NC(=O)[C@H]5CSC(=N5)/C(=C/C)NC(=O)[C@H]([C@@H](C)O)NC(=O)c5csc(n5)[C@]3(CC2)NC(=O)[C@H](C)NC(=O)C(=C)NC(=O)C(=C)NC(=O)[C@H](C(C)C)N[C@@H]2C=Cc3c([C@H](C)O)cc(nc3[C@H]2O)C(=O)O[C@@H]4C)n1)C(N)=O [Siomycin A] | – | – | – | – | – | – | Tg_72h_%Growth_Rep1 [1, 4]: 94.53%; Tg_72h_%Growth_Rep2 [1, 4]: 80.70%; Pf_120h_%Growth_Rep1 [2, 5]: 88.55%; Pf_120h_%Growth_Rep2 [2, 5]: 55.07%; Pf_72h_%Growth_Rep1 [3, 6]: 88.11%; Pf_72h_%Growth_Rep2 [3, 6]: 105.15%
COc1ccc(Br)c(C)c1C(=O)O[C@@H]1C[C@H](O[C@@H]2C(C)O[C@@H](O[C@H]3CCC[C@@H]4[C@@H]3C=C[C@H]3CCCC/C=C/[C@@H]5C=C(C(=O)O)[C@H](C)C[C@]56OC(=O)C(=C6O)OC(=O)[C@@]43C)C[C@H]2O)O[C@H](C)[C@H]1O (stereo partly drawn) [Bromothricin] | 83.92% | 93.14% | 159.83% | 97.51% | 90.13% | 84.25% | –
COc1ccc2c(c1)N(C(C)=O)[C@H]1[C@@H]3CO[C@H](C)[C@@H]4CN5CC[C@]21[C@@H]5C[C@H]34 [Strychnospermine] | – | – | – | – | – | – | Tg_72h_%Growth_Rep1 [1, 4]: 96.72%; Tg_72h_%Growth_Rep2 [1, 4]: 111.43%; Pf_120h_%Growth_Rep1 [2, 5]: 157.71%; Pf_120h_%Growth_Rep2 [2, 5]: 76.73%; Pf_72h_%Growth_Rep1 [3, 6]: 72.81%; Pf_72h_%Growth_Rep2 [3, 6]: 85.90%
CC(C)C(=O)N[C@H](CO)[C@H](O)c1ccc([N+](=O)[O-])cc1 [Corynecin III] | 93.46% | 102.63% | 87.60% | 90.07% | 86.99% | 97.15% | –
CCC(C)C1OC2(CCC1C)CC1CC(CC=C(C)C(OC3CC(OC)C(OC4CC(OC)C(O)C(C)O4)C(C)O3)C(C)C=CC=C3COC4C(O)C(C)=CC(C(=O)O1)C34O)O2 (stereo not drawn) [BIA-I1119] | – | – | – | – | – | – | Tg_72h_%Growth_Rep1 [1, 9]: 98.36%; Tg_72h_%Growth_Rep2 [1, 9]: 101.63%; Pf_120h_%Growth_Rep1 [2, 10]: 82.92%; Pf_120h_%Growth_Rep2 [2, 10]: 106.39%; Pf_72h_%Growth_Rep1 [3, 11]: 86.44%; Pf_72h_%Growth_Rep2 [3, 11]: 71.84%
O=c1[nH]c2ccccc2c(-c2cccc(O)c2)c1O [Viridicatol] | 112.17% | 75.26% | 110.38% | 105.05% | 94.32% | 122.09% | –
COC1=C(OC)C(=O)[C@@H](C)[C@H](C)C1=O [BIA-G1680] | – | – | – | – | – | – | Tg_72h_%Growth_Rep1 [1, 9]: 146.51%; Tg_72h_%Growth_Rep2 [1, 9]: 97.35%; Pf_120h_%Growth_Rep1 [2, 10]: 27.26%; Pf_120h_%Growth_Rep2 [2, 10]: 12.29%; Pf_72h_%Growth_Rep1 [3, 11]: 4.48%; Pf_72h_%Growth_Rep2 [3, 11]: 3.13%
C/C=C/C[C@@H](C)[C@@H](O)[C@H]1C(=O)N[C@@H]([C@@H](C)O)C(=O)N(C)CC(=O)N(C)[C@@H](CC(C)C)C(=O)N[C@@H](C(C)C)C(=O)N(C)[C@@H](CC(C)C)C(=O)N[C@@H](C)C(=O)N[C@H](C)C(=O)N(C)[C@@H](CC(C)C)C(=O)N(C)[C@@H](CC(C)C)C(=O)N(C)[C@@H](C(C)C)C(=O)N1C [Cyclosporin C] | 44.04% | 47.65% | 31.80% | 7.29% | 11.25% | 0.59% | –
